The source of these data is the NIST ThermoML archive (doi:10.1021/je400679k).

For data set [1] the following is noted: 101 kPa, Liquid, Vibrating tube method.
Data set [2] in a line: xn = mol fraction of the nth substance listed. The following applies: 101 kPa, Liquid, Vibrating tube method, x2 = 0.

Structures are written as SMILES. ± gives the expanded uncertainty stated by the source.

For orientation: mass density means the mass of a sample divided by its volume. Take `CNCCCN` [N-methyl-1,3-diaminopropane]: the mass density in data set [1] (283.15 K) was 860.459 ± 0.68 kg/m3; in data set [1] (293.15 K) it was 851.605 ± 0.67 kg/m3; in data set [1] (303.15 K), 842.69 ± 0.67 kg/m3; in data set [1] (313.15 K) it was 833.715 ± 0.66 kg/m3; in data set [1] (323.15 K), 824.673 ± 0.65 kg/m3; in data set [1] (333.15 K), 815.559 ± 0.64 kg/m3. Also, the figures for the mass density in data set [1] (343.15 K), in data set [1] (353.15 K) and in data set [1] (363.15 K) were 806.37 ± 0.63 kg/m3, 797.093 ± 0.62 kg/m3 and 787.723 ± 0.61 kg/m3, respectively.

On to `CN(C)CCO` [2-(N,N-dimethylamino)ethanol], for which the mass density in data set [1] (283.15 K) amounted to 894.959 ± 0.11 kg/m3; in data set [1] (293.15 K), 886.56 ± 0.12 kg/m3; in data set [1] (303.15 K) it was 878.059 ± 0.12 kg/m3; in data set [1] (313.15 K), 869.428 ± 0.12 kg/m3; in data set [1] (323.15 K), 860.655 ± 0.12 kg/m3; in data set [1] (333.15 K), 851.72 ± 0.13 kg/m3. In addition, the mass density in data set [1] (343.15 K) is recorded as 842.604 ± 0.13 kg/m3; in data set [1] (353.15 K), 833.288 ± 0.13 kg/m3; in data set [1] (363.15 K), 823.754 ± 0.14 kg/m3.

Regarding `CCN(CC)CCO` [(diethylamino)ethanol] + CNCCCN, the mass density was found to be 894.423 ± 0.23 kg/m3 in data set [2] (283.15 K); 885.356 ± 0.23 kg/m3 in data set [2] (293.15 K); 876.155 ± 0.23 kg/m3 in data set [2] (303.15 K); 866.828 ± 0.23 kg/m3 in data set [2] (313.15 K); 857.388 ± 0.23 kg/m3 in data set [2] (323.15 K); 847.839 ± 0.23 kg/m3 in data set [2] (333.15 K). The mass density worked out at 838.157 ± 0.23 kg/m3 in data set [2] (343.15 K), 828.488 ± 0.23 kg/m3 in data set [2] (353.15 K) and 818.597 ± 0.24 kg/m3 in data set [2] (363.15 K).

Regarding `O` [water] + CNCCCN, the mass density in data set [2] (283.15 K) is recorded as 999.701 ± 0.033 kg/m3; in data set [2] (333.15 K), 983.197 ± 0.041 kg/m3; in data set [2] (343.15 K), 977.76 ± 0.043 kg/m3; in data set [2] (353.15 K) it was 971.788 ± 0.046 kg/m3; in data set [2] (363.15 K), 965.305 ± 0.048 kg/m3.

In the case of `O` [water], the mass density turned out to be 999.701 ± 0.033 kg/m3 in data set [1] (283.15 K); 983.197 ± 0.041 kg/m3 in data set [1] (333.15 K); 977.76 ± 0.043 kg/m3 in data set [1] (343.15 K); 971.788 ± 0.046 kg/m3 in data set [1] (353.15 K); 965.305 ± 0.048 kg/m3 in data set [1] (363.15 K).

With `CN(CCO)CCO` [N-methyldiethanolamine], the mass density was determined as 1040.06 ± 0.92 kg/m3 in data set [1] (293.15 K); 1032.47 ± 0.9 kg/m3 in data set [1] (303.15 K); 1024.86 ± 0.89 kg/m3 in data set [1] (313.15 K); 1017.21 ± 0.87 kg/m3 in data set [1] (323.15 K); 1009.51 ± 0.86 kg/m3 in data set [1] (333.15 K); 1001.73 ± 0.84 kg/m3 in data set [1] (343.15 K). The mass density in data set [1] (353.15 K) was 993.889 ± 0.83 kg/m3; in data set [1] (363.15 K), 985.958 ± 0.82 kg/m3.

For the molecule `CN(C)CCO` [2-(N,N-dimethylamino)ethanol] + CNCCCN, the mass density amounted to 894.959 ± 0.11 kg/m3 in data set [2] (283.15 K); 886.56 ± 0.12 kg/m3 in data set [2] (293.15 K); 878.059 ± 0.12 kg/m3 in data set [2] (303.15 K); 869.428 ± 0.12 kg/m3 in data set [2] (313.15 K); 860.655 ± 0.12 kg/m3 in data set [2] (323.15 K); 851.72 ± 0.13 kg/m3 in data set [2] (333.15 K). Besides, the mass density in data set [2] (343.15 K) is 842.604 ± 0.13 kg/m3; in data set [2] (353.15 K), 833.288 ± 0.13 kg/m3; in data set [2] (363.15 K) it was 823.754 ± 0.14 kg/m3.

On to `CN(CCO)CCO` [N-methyldiethanolamine] + CNCCCN, for which the mass density in data set [2] (293.15 K) was 1040.06 ± 0.92 kg/m3; in data set [2] (303.15 K), 1032.47 ± 0.9 kg/m3; in data set [2] (313.15 K) it was 1024.86 ± 0.89 kg/m3; in data set [2] (323.15 K) it was 1017.21 ± 0.87 kg/m3; in data set [2] (333.15 K), 1009.51 ± 0.86 kg/m3; in data set [2] (343.15 K) it was 1001.73 ± 0.84 kg/m3. In addition, the results for the mass density in data set [2] (353.15 K) and in data set [2] (363.15 K) were 993.889 ± 0.83 kg/m3 and 985.958 ± 0.82 kg/m3, respectively.

As for `CCN(CC)CCO` [(diethylamino)ethanol], the mass density in data set [1] (283.15 K) was found to be 894.423 ± 0.23 kg/m3; in data set [1] (293.15 K), 885.356 ± 0.23 kg/m3; in data set [1] (303.15 K), 876.155 ± 0.23 kg/m3; in data set [1] (313.15 K), 866.828 ± 0.23 kg/m3; in data set [1] (323.15 K), 857.388 ± 0.23 kg/m3; in data set [1] (333.15 K) it was 847.839 ± 0.23 kg/m3. Besides, the mass density was 838.157 ± 0.23 kg/m3 in data set [1] (343.15 K), 828.488 ± 0.23 kg/m3 in data set [1] (353.15 K) and 818.597 ± 0.24 kg/m3 in data set [1] (363.15 K).
